Test results taken from paper PMC11019550, “Potent Inhibition of E. coli DXP Synthase by a gem-Diaryl Bisubstrate Analog” (ACS Infectious Diseases, 2024).

Key:
EcDXPS = target: T1, EcDXPS (Escherichia coli, UniProt P77488); assay: DXPS-IspC coupled assay, apparent Ki on wildtype EcDXPS; format: biochemical; conditions: for Ki: read-out: Ki^app; for fold increase in Ki^app relative to 8: relative to compound 8; for fold change in Ki^app relative to 1: relative to compound 1
T1 construct: made in house
Procedure: To determine inhibitor potency, we used the DXPS-DXP reductoisomerae (DXPS-IspC) coupled assay to measure the activity of recombinant purified EcDXPS[24],[25],[31],[44],[50] in the presence of inhibitors. Reactions were initiated by the addition of substrates following a short preincubation of the inhibitor with enzymes, and initial velocities were determined by monitoring reduced nicotinamide adenine dinucleotide phosphate (NADPH) absorbance at 340 nm. Apparent Ki values were determined by fitting initial velocity data to the Morrison equation,[64],[65] which accounts for the tight-binding nature (Ki^app/[E]total < 10)[66] of inhibitors included in this study and allows for rigorous comparison of inhibitor potencies. […] Inhibitor activities were rationalized based on the predictions made from molecular docking of the corresponding PLThDP adducts into the DXPS active site.
All compounds in this study were evaluated as DXPS inhibitors using the DXPS-IspC coupled assay as previously reported.[24] […] The DXPS reaction was initiated by the addition of substrates (50 μM pyruvate and 500 μM D-GAP). The initial rate of depletion of NADPH was monitored at 340 nm and was used to calculate the initial rate of DXP formation in the presence or absence of inhibitor. Initial rates of DXP formation were plotted as a function of [inhibitor], and Ki^app was determined by fitting the data to the Morrison equation (eq 1)[64],[65] in GraphPad Prism. This approach was deemed appropriate as the concentration of free inhibitor cannot be assumed to remain constant for most of these analogs in which Ki^app values approach the concentration of DXPS.[88],[89] Error is reported as standard deviation from three replicates. Active enzyme concentration ([E]T) was determined following Copeland’s method using 8 (Figure S2B).[88]
The coupled assay was initiated by adding 20 μL of a 10× substrate stock to the preincubated E + I mixture to give a final volume of 200 μL. The final concentration of D-GAP was held constant at 500 μM, and [pyruvate] was added to final concentrations between 0 and 250 μM. The initial rate of NADPH depletion in the IspC-coupled reaction was monitored at 340 nm and was used to calculate the initial rate of DXP formation in the presence or absence of inhibitor. Initial rates were plotted as a function of [pyruvate]. […] Model discrimination analysis employing the Akaike information criterion was performed as well as Lineweaver–Burk analysis to determine the mixed model as the best fit. In all cases, error bars represent the standard deviation from three replicates.

[1] = test system: porcine pyruvate dehydrogenase (PDH) E1 subunit; assay: Inhibition of porcine pyruvate dehydrogenase (PDH); format: biochemical; conditions: DXPS over porcine PDH
Description: As noted, DXPS has a large active site and follows a mechanism requiring ternary complex formation, distinct from other ThDP-dependent pyruvate decarboxylases. We hypothesized that the sterically demanding scaffold of 8, predicted to engage both substrate binding sites, should display selectivity for DXPS. In a preliminary assessment, we tested 8 as an inhibitor of porcine pyruvate dehydrogenase (PDH) E1 subunit. […] For comparison, the selectivity ratio for 1 was estimated to be >15,000-fold for DXPS over porcine PDH.
Figure S5. Evaluation of inhibitory activity of 8 against mammalian porcine pyruvate dehydrogenase (PDH). Porcine PDH (0.01 U/mL) and inhibitor (8 or MAP positive control) were preincubated for 10 minutes at 25 °C in enzyme buffer (2 mM MgCl2, 5 mM L-cysteine, 1 mM ThDP, 300 μM TCEP, 100 mM HEPES pH 8, 2.5 mM NAD +, and 100 μM coenzyme A). The reaction was initiated by addition of pyruvate (60 μM). The change in absorbance at 340 nm over time was measured and used to calculate the initial rate of NADH formation. The % activity of PDH in the presence of 8 or MAP was plotted using GraphPad Prism version 9. There is 21% inhibition of PDH activity observed in the presence of compound 8 at a concentration of 1 mM.
Experiments were performed in triplicate. Error bars represent standard error.
Figure S6. Replicate progress curves for DXP formation in the presence or absence of inhibitors 8 or 10 with EcDXPS. A) Progress curves for formation of DXP in the presence of 8 display time-dependence of inhibition. B) Progress curves for formation of DXP in the presence of descarboxyl […]

R99A EcDXPS = target: T2, R99A EcDXPS (Escherichia coli, UniProt P77488, R99A); assay: Circular dichroism titration (PLThDP formation, apparent KD) on R99A EcDXPS; format: binding
T2 construct: made in house
Procedure: (§1) CD titrations of 8 and 10 onto WT, R99A, and R478A EcDXPS variants were conducted at 25 °C under aerobic conditions in 1.5 mL solutions containing 30 μM EcDXPS in 50 mM HEPES pH 8, 100 mM NaCl, 1 mM MgCl2, and 0.2 mM ThDP. Scans were obtained from 280 to 400 nm with a 0.5 s averaging time and 1 nm step following a titration of inhibitor (8: 0.25–30 μM on WT, 0.5–30 μM on R99A and R478A; 10 2.5–30 μM on WT, R99A, and R478A), with a 5 min preincubation of inhibitor with DXPS prior to scanning. […] The CD signals at 294 nm determined from the difference spectra obtained by subtracting the signal of E-ThDP at 294 nm were plotted as a function of [inhibitor] and fit to (1) the quadratic equation described in eq 2 (8 on WT DXPS), where E is the concentration of DXPS taking into account stoichiometric binding and CDmax is the maximal CD signal, or (2) a one-site specific binding curve (all other experiments) using GraphPad Prism Version 9 to calculate an apparent KD. Experiments were conducted in triplicate and the standard error was calculated. [drawing 2] 2
(§2) At the conclusion of the titration described above, the CD signal at 313 nm (previously characterized for LThDP) was recorded. Pyruvate (1 mM) was then added to the mixture, and a CD scan of the resulting solution was conducted as described above, to detect shifts in the CD spectrum that may correlate to LThDP formation. Experiments were conducted in triplicate.

WT EcDXPS [2] = target: T3, WT EcDXPS (Escherichia coli, UniProt P77488); assay: Circular dichroism titration (PLThDP formation, apparent KD) on WT EcDXPS; format: binding
T3 construct: made in house
Description: The X-ray structure obtained from cocrystallization of DrDXPS with 1 (Figure 2) indicates the formation of the PLThDP adduct by reaction of the acetylphosphonate mimic of pyruvate with the C2 carbanion of ThDP. We reasoned that 8 should also engage the pyruvate binding site and react with ThDP to form a PLThDP adduct. Circular dichroism (CD) is a powerful tool that can be used to detect LThDP and LThDP-like adducts on thiamin-dependent enzymes,[56],[67]−[75] including DXPS.[31],[36],[43],[44],[49]−[52],[76] DXPS bound to ThDP (E-ThDP) is characterized by a CD λmin at 320 nm, indicative of the 4′-aminopyrimidine (AP) tautomer of ThDP (Figure 8A). Upon addition of pyruvate to E-ThDP, a new positive signal emerges at 313 nm, indicating the formation of LThDP in its 1′,4′-iminopyrimidine (IP) form. Similarly, upon addition of AP-based inhibitors to E-ThDP, the E-PLThDP adduct is formed, characterized by an increasing, broad CD signal.[69],[77],[78] Determination of apparent KD of PLThDP by plotting the CD signal corresponding to PLThDP versus [MAP] has been used as a proxy for PLThDP affinity.[77],[78] To confirm that 8 reacts with ThDP to form PLThDP in the DXPS active site, the change in CD signal upon addition of 8 (0.25–30 μM) to EcDXPS (30 μM) was measured. […] Plotting the CD signal at 294 nm versus affords a curve that approaches the limiting asymptotes defined by infinitely tight binding (Figure 8C),[79],[80] which is expected for this nanomolar inhibitor under the conditions of high [DXPS] required for this method. Since in this case [DXPS] ≫ KD^app, an accurate determination of KD^app is not possible, and data were fit to a quadratic equation to give an estimated upper limit for the value of KD^app (≤0.04 ± 0.01 μM). Addition of 10 to DXPS also results in an increased, broad CD signal (Figure S7A), indicating PLThDP formation. […]
as §1, with “ThDP.” for “ThDP. Scans were obtained from 280 to 400 nm with a 0.5 s averaging time and 1 nm step following a titration of inhibitor (8: 0.25–30 μM on WT, 0.5–30 μM on R99A and R478A; 10 2.5–30 μM on WT, R99A, and R478A), with a 5 min preincubation of inhibitor with DXPS prior to scanning.”, “[drawing 2] 2” left out
At the conclusion of the titration described above, the CD signal at 313 nm (previously characterized for LThDP) was recorded. […]

WT EcDXPS [3] = target: T3, WT EcDXPS; assay: Time-dependent inhibition, reaction progress curves on WT EcDXPS; format: biochemical; conditions: 8 at 400 or 800 nM, 10 at 1 or 100 μM
Procedure: To determine if 8 is also a slow-onset inhibitor of DXPS, reaction progress was monitored upon simultaneous addition of substrates (pyruvate and D-GAP) in the presence or absence of inhibitor. In the absence of inhibitor, the reaction progress curve is linear. […] To assess the importance of the carboxyl group of 8, we evaluated descarboxy analog 10 in the same manner.
EcDXPS (100 nM) and IspC (2 μM) were preincubated in enzyme reaction buffer (100 mM HEPES pH 8, 2 mM MgCl2, 5 mM NaCl, 1 mM ThDP, and 200 μM NADPH) with 250 μM D-GAP for 10 min at 25 °C. The reaction was initiated by the addition of pyruvate (1 mM) and inhibitor (400 nM and 800 nM 8; 1 μM and 100 μM 10). The reaction mixture was incubated at 25 °C, and the absorbance of NADPH at 340 nm was monitored. The change in the absorbance of NADPH over time was used to calculate [DXP] (μM) produced over time. Experiments were performed in triplicate.

R478A EcDXPS = target: T4, R478A EcDXPS (Escherichia coli, UniProt P77488, R478A); assay: Circular dichroism titration (PLThDP formation, apparent KD) on R478A EcDXPS; format: binding
T4 construct: made in house
Procedure: as §1, §2

SMILES | Ki (EcDXPS) [nM] | fold change in Ki^app relative to 1 (EcDXPS) [fold] | other results
CC(=O)P(=O)(O)OCCc1cn(C2(C(=O)O)CCCC2)nn1 [Compound 13] | 530 ± 110 |  | 
CC(=O)P(=O)(O)OCCc1cn([C@H](C(=O)O)C23CC4CC(CC(C4)C2)C3)nn1 [Compound 17] | 390 ± 60 |  | 
CC(=O)P(=O)(O)OCCc1cn([C@H](Cc2cccc3ccccc23)C(=O)O)nn1 [Compound 7] | 600 ± 60 |  | 
CC(=O)P(=O)(O)OCCc1cn([C@H](Cc2ccccc2)C(=O)O)nn1 [Compound 1, D-PheTrAP] | 260 ± 30 |  | estimated selectivity ratio for DXPS over porcine PDH [1]: > 15,000 fold
CC(=O)P(=O)(O)OCCc1cn([C@H](Cc2ccccc2)C(c2ccccc2)c2ccccc2)nn1 [Compound 21] |  |  | inhibition of EcDXPS (EcDXPS; up to a concentration of 50 μM): Minimal inhibition
CC(=O)P(=O)(O)OCCc1cn(C(Cc2ccccc2)Cc2ccccc2)nn1 [Compound 10] | 11000 ± 1000 |  | Kd (R99A EcDXPS): 14500 ± 700 nM; Kd (WT EcDXPS [2]): 9000 ± 1000 nM; change in PLThDP CD signal upon addition of 1 mM pyruvate (WT EcDXPS [2]; WT EcDXPS 30 μM, inhibitor 30 μM): CD signal shift and an increase in amplitude; time dependence of inhibition (progress curve for DXP formation) (WT EcDXPS [3]): linear; fold increase in Ki^app relative to 8 (EcDXPS): ~3800 fold; Kd (R478A EcDXPS): 6000 ± 1000 nM
CC(=O)P(=O)(O)OCCc1cn([C@H](Cc2ccc(-c3ccccc3)cc2)C(=O)O)nn1 [Compound 2] | 8000 ± 1000 | 30 | 
CC(=O)P(=O)(O)OCCc1cn([C@H](Cc2ccc(OCc3ccccc3)cc2)C(=O)O)nn1 [Compound 3] | 4900 ± 600 | 19 | 
CC(=O)P(=O)(O)OCCc1cn([C@@H](CO)Cc2ccccc2)nn1 [Compound 18] | 13300 ± 1400 |  | 
CC(=O)P(=O)(O)OCCc1cn([C@@H](C(=O)O)C2CCCCC2)nn1 [Compound 15] | 1600 ± 200 | 6 | 
CC(=O)P(=O)(O)OCCc1cn(C2(C(=O)O)Cc3ccccc3C2)nn1 [Compound 12] | 290 ± 40 |  | 
CC(=O)P(=O)(O)OCCc1cn([C@H](COCc2ccccc2)C(=O)O)nn1 [Compound 4] | 1420 ± 50 | ~5 | 
CC(=O)P(=O)(O)OCCc1cn([C@@H](Cc2ccccc2)C(c2ccccc2)c2ccccc2)nn1 [Compound 22] | 96000 ± 10000 | 370 | α (mixed inhibition model) (EcDXPS; mixed inhibition model): > 1; inhibition mode (EcDXPS; model discrimination by Akaike's information criterion, varied pyruvate): mixed inhibition mode
COC(=O)C(Cc1ccccc1)(Cc1ccccc1)n1cc(CCOP(=O)(O)C(C)=O)nn1 [Compound 11] | 2900 ± 500 |  | fold increase in Ki^app relative to 8 (EcDXPS): 1000 fold
CC(=O)P(=O)(O)OCCc1cn([C@@H](C(=O)O)c2ccccc2)nn1 [Compound 5] | 2100 ± 200 | 8 | 
CC(=O)P(=O)(O)OCCc1cn([C@H](CO)Cc2ccccc2)nn1 [Compound 19] | 13400 ± 1500 |  | 
CC(=O)P(=O)(O)OCCc1cn(C(c2ccccc2)c2ccccc2)nn1.CCN(CC)CC [Compound 20] | 5420 ± 40 | ~21 | 
CC(=O)P(=O)(O)OCCc1cn([C@@H](C(=O)O)C23CC4CC(CC(C4)C2)C3)nn1 [Compound 16] | 360 ± 10 |  | 
CC(=O)P(=O)(O)OCCc1cn([C@@H](C(=O)O)C(c2ccccc2)c2ccccc2)nn1 [Compound 6] | 570 ± 120 |  | 
CC(=O)P(=O)(O)OCCc1cn([C@H](CC2CCCCC2)C(=O)O)nn1 [Compound 14] | 260 ± 60 |  | 
